According to ChEMBL document CHEMBL2062514 (J Med Chem, 2012):

Assays:
[1] = molecular target: T1, Adenosine receptor A1 (Homo sapiens, UniProt P30542); assay: Displacement of [3H]R-PIA from human recombinant adenosine A1 receptor expressed in CHO cells after 60 mins by liquid scintillation counting; format: cell-based
T1 sequence (P30542 whole entry): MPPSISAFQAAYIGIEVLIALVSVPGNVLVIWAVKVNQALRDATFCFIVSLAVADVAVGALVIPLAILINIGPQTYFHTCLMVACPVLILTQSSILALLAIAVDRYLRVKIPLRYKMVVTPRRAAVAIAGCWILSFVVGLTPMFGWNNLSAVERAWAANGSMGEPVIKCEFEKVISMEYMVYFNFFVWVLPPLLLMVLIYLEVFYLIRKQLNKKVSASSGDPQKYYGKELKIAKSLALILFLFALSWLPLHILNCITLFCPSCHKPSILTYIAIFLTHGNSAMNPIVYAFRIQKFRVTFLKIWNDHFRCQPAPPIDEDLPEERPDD

[2] = molecular target: Adenosine receptor A2a (Homo sapiens, UniProt P29274); assay: Displacement of [3H]CGS21680 from human recombinant adenosine A2A receptor expressed in HEK293 cells at 10 uM after 60 mins by liquid scintillation counting; format: cell-based
[3] = molecular target: T2, Adenosine receptor A3 (Homo sapiens) (UniProt P0DMS8); assay: Agonist activity at human recombinant adenosine A3 receptor expressed in CHO cells assessed as inhibition of forskolin-stimulated cAMP production at 10 uM incubated for 30 mins prior to forskolin-stimulation measured after 15 mins by enzyme immunoassay relative to NECA; format: functional, cell-based
T2 sequence (whole entry): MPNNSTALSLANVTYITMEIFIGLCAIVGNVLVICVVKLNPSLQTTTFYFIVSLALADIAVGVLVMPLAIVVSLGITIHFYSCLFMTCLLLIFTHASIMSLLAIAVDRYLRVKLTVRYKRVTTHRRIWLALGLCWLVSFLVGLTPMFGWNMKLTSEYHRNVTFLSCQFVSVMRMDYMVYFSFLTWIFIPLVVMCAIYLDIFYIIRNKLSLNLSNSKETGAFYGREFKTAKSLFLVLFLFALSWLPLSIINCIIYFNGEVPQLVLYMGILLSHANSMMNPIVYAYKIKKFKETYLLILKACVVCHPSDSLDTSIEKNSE

[4] = molecular target: T3, Adenosine receptor A3 (Mus musculus, UniProt Q61618); assay: Displacement of [125I]I-AB-MECA from mouse adenosine A3 receptor expressed in HEK293 cells after 60 mins by liquid scintillation counting
T3 sequence (Q61618 whole entry): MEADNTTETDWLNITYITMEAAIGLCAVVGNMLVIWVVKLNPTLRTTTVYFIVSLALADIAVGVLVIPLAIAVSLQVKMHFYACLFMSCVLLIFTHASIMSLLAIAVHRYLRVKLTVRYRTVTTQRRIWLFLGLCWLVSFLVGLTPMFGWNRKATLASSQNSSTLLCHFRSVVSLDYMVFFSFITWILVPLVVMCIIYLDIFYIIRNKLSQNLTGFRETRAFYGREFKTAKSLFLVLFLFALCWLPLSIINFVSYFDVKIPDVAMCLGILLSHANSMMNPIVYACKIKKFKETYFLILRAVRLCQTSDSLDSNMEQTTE

[5] = molecular target: T4, Adenosine receptor A1 (Mus musculus, UniProt Q60612); assay: Displacement of [125I]I-AB-MECA from mouse adenosine A1 receptor expressed in HEK293 cells after 60 mins by liquid scintillation counting
T4 sequence (Q60612 whole entry): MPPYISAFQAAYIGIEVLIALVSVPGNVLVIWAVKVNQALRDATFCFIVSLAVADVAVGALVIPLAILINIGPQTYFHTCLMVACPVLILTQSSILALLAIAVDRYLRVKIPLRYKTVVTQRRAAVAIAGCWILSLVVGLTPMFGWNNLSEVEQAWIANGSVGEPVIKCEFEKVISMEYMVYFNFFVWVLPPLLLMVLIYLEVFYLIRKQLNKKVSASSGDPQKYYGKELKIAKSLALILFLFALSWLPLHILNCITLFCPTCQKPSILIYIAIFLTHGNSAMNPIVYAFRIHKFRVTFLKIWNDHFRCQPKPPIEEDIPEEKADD

[6] = molecular target: Adenosine receptor A2a (Mus musculus) (UniProt Q60613); assay: Displacement of [3H]CGS21680 from mouse adenosine A2A receptor expressed in HEK293 cells at 10 uM after 60 mins by liquid scintillation counting
[7] = molecular target: T5, Adenosine receptor A1 (Homo sapiens) (UniProt P30542); assay: Displacement of [3H]R-PIA from human recombinant adenosine A1 receptor expressed in CHO cells at 10 uM after 60 mins by liquid scintillation counting; format: cell-based
T5 sequence (whole entry): T1 sequence (P30542 whole entry)

[8] = molecular target: T6, Adenosine receptor A3 (Homo sapiens, UniProt P0DMS8); assay: Displacement of [3H]I-AB-MECA from human recombinant adenosine A3 receptor expressed in CHO cells after 60 mins by gamma counting; format: cell-based
T6 sequence (P0DMS8 whole entry): T2 sequence (whole entry)

Sequence of Adenosine receptor A2a (P29274 whole entry): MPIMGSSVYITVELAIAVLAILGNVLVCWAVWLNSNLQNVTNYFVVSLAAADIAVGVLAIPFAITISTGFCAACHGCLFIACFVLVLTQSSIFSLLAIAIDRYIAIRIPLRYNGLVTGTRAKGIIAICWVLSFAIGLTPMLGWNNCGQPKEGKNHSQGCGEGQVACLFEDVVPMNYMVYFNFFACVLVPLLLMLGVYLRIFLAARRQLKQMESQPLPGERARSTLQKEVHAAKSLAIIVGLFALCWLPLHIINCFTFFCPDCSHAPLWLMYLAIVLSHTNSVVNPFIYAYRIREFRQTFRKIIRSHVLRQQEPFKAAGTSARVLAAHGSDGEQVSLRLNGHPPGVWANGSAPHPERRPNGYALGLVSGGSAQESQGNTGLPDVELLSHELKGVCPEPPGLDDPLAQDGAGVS
Sequence of Adenosine receptor A2a (Mus musculus) (Q60613 whole entry): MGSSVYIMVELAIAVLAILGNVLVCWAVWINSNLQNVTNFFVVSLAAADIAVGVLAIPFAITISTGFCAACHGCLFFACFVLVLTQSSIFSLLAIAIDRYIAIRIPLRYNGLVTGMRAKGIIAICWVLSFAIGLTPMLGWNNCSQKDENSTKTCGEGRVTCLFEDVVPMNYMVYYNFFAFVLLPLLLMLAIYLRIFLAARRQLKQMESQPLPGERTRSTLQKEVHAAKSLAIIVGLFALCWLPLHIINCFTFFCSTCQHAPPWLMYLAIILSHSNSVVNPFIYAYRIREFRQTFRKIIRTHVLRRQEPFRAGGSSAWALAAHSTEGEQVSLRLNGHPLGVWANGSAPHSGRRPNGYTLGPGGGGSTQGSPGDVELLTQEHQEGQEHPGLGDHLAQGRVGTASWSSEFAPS

Structure (SMILES) | Ki [1] | inhibition [2] | Efficacy [3] | Ki [4] | Ki [5] | inhibition [6] | inhibition [7] | Ki [8]
CNC(=O)[C@@]12C[C@@H]1[C@@H](n1cnc3c(NCc4cccc(Cl)c4)nc(C#Cc4ccc(N)cc4)nc31)[C@H](O)[C@@H]2O | 1520 nM | 44% | 76.6% | 0.82 nM | 261 nM | 5% |  | 
CNC(=O)[C@@]12C[C@@H]1[C@@H](n1cnc3c(NCc4cccc(Cl)c4)nc(C#Cc4cc5cccc6ccc7cccc4c7c65)nc31)[C@H](O)[C@@H]2O |  | 4% | 97.1% |  |  |  | 11% | 660 nM
